In assay [1] the target is T1, FLAG-KDM6B (1043-1682) (JMJD3) (Homo sapiens, UniProt O15054).
T1 construct: FLAG-KDM6B (1043-1682) was purchased from BPS Bioscience (50115); FLAG (N); purchased BPS Bioscience 50115
Briefly: AlphaScreen KDM6B demethylation assay. It is filed as biochemical. The protocol:
Histone demethylase assays were performed as described previously, with the exception of all enzyme reactions containing 125 μM α-KG. Enzymes were used at the following approximate concentrations in validation experiments, chosen based on their activity in AlphaScreen assays: 19 nM FLAG-KDM5A, 15 nM FLAG-KDM5B, 6 nM FLAG-KDM5C, 29 nM His-FLAG-KDM6A, and 16 nM FLAG-KDM6B. 24 nM FLAG-KDM5A was used for Km determination experiments. Reactions were carried out for 1 hour, or were stopped by addition of 30 mM EDTA every 5 minutes for determining enzyme kinetics. Km values were calculated using the Michaelis-Menten non-linear regression analysis on GraphPad Prism 6.0 software. The concentration of DMSO in demethylation reactions was 0.05%. For reactions with catalase, catalase (Sigma C30) or an equal volume of dilution buffer was added to the peptide-containing buffer before addition of the demethylase. The final concentration of catalase in the reactions was 0.01 mg/ml.
(§1) The AlphaScreen general IgG (protein A) detection kit from PerkinElmer Life Sciences was used as described previously. The luminescence emission was recorded at 570 nm using the AlphaScreen optic module on a Pherastar (BMG Labtech) or Envision (PerkinElmer Life Sciences) microplate reader.
Background: In Alpha technology, singlet oxygen from a donor bead excites a nearby acceptor bead.

For the next assay, the system named is BT474 cells. Briefly: Colony formation assay, BT474 (trastuzumab tolerance). It is filed as cell-based, human. The protocol:
(§2) Cells were seeded in 6-well plates at low density: HeLa, MCF7, BT474, and PC9 cells at 1000, 2000, 2500, and 2000 cells/well respectively. Media containing the prescribed drugs or 0.1% DMSO was replaced every 3 days. Trastuzumab was used at 5 μg/ml. Gefitinib was used at 2 μM. YUKA1 was used at 50 or 100 μM. Doxycycline was used at 1 μg/ml for 3 days. After 7–42 days depending on the rate of cell growth, cells were fixed in 4% para-formaldehyde in phosphate-buffered saline for 10 minutes rocking at room temperature. They were incubated in 0.05% crystal violet in double-distilled water for 30 minutes rocking at room temperature, washed with water, and dried 24 hours before photographing. ColonyArea, a plugin for ImageJ software, was used for quantification. Unpaired, two-tailed student's t-test calculated using GraphPad Prism 6.0 software was used to determine significance.

A further assay deals with PC9 cells. Briefly: Colony formation assay, PC9 (gefitinib tolerance). It is filed as cell-based, human. The protocol: as §2
A further assay deals with T2, full-length FLAG-KDM5A (Homo sapiens, UniProt P29375).
T2 construct: Sf21 insect cells were infected with baculovirus to express full-length FLAG-KDM5A; made in house; host or cells: Sf21 insect cells (baculovirus)
Briefly: AlphaScreen KDM5A demethylation assay. The class given is biochemical. Particulars: for inhibition at 2 µM: 2 μM compound.
From the text: AlphaScreen technology (PerkinElmer) was utilized to perform a screen for small molecule inhibitors of KDM5A. The assay was comprised of two steps, a demethylation reaction followed by detection of the product. A biotinylated H3K4me3 peptide was used as substrate in the demethylation reaction with KDM5A in the presence or absence of small molecule inhibitors. The presence of peptide product (H3K4me1/2) was detected using a product-specific antibody and beads. For this, acceptor beads coated in protein A bound to the antibody, which recognized the peptide product. Donor beads coated in streptavidin bound biotin on the peptide substrate. If the demethylation reaction occurred, the beads were in very close proximity and laser excitation of the donor beads at 680nm caused a transfer of energy in the form of reactive singlet oxygen, resulting in emission by the acceptor beads between 520–620 nm ([30, 31], Figure 1A). The luminescent signal detected was a proxy for the amount of demethylation that occurred.
Reactions were carried out for 1 hour, or were stopped by addition of 30 mM EDTA every 5 minutes for determining enzyme kinetics. Km values were calculated using the Michaelis-Menten non-linear regression analysis on GraphPad Prism 6.0 software. The concentration of DMSO in demethylation reactions was 0.05%. For reactions with catalase, catalase (Sigma C30) or an equal volume of dilution buffer was added to the peptide-containing buffer before addition of the demethylase. The final concentration of catalase in the reactions was 0.01 mg/ml.
as §1
IC50 values were calculated by log transformation and non-linear regression log(inhibitor) versus response(three parameters) using Graphpad Prism 6.0 software.

The test system of a further assay is MCF7 cells. Briefly: WST-1 proliferation assay, MCF7. Particulars: MCF7, after 3 days. The class given is cell-based, human. As to the method:
(§3) WST-1 reagent from Roche Applied Sciences (11644807001) was used to measure cell number before drug addition and after 3 or 5 days of growth as described previously. Cells were seeded in 96-well plates at the following number of cells per well: HeLa (2000), MCF7 (2000), ZR-75-1 (1000), MCF10A (1000), MDA-MB-231(5000). DMSO was used at 0.1%. Relative absorbance was calculated by subtracting the average background (media only) signal, dividing by the average signal on day 0, and then dividing by the average day 5/day 0 ratio for the DMSO controls. Significance was calculated by unpaired, two-tailed student's t-test using GraphPad Prism 6.0 software.
(Tetrazolium assays rely on reduction of a dye to a coloured formazan, in cell work by metabolically active cells.)

The subject of a further assay is ZR-75-1 cells. Briefly: WST-1 proliferation assay, ZR-75-1. It is filed as cell-based, human. Particulars: ZR-75-1, 5 days of treatment. The protocol: as §3
The test system of another assay is HeLa cells. Briefly: WST-1 proliferation assay, HeLa. The class given is cell-based, human. To be noted: after 3 days. As to the method: as §3
In another assay the test system is MCF10A cells. Briefly: WST-1 proliferation assay, MCF10A. The class given is cell-based, human. Particulars: 5 days of treatment. The protocol:
as §3

pIC50: −log10 of the molar value.

For orientation: pIC50 means −log10 of the IC50, conventionally taken in molar units. A low value points to a large IC50. One may read the inhibition as how much of the control response was suppressed. Read a low inhibition as little suppression.

T2 sequence (P29375 whole entry): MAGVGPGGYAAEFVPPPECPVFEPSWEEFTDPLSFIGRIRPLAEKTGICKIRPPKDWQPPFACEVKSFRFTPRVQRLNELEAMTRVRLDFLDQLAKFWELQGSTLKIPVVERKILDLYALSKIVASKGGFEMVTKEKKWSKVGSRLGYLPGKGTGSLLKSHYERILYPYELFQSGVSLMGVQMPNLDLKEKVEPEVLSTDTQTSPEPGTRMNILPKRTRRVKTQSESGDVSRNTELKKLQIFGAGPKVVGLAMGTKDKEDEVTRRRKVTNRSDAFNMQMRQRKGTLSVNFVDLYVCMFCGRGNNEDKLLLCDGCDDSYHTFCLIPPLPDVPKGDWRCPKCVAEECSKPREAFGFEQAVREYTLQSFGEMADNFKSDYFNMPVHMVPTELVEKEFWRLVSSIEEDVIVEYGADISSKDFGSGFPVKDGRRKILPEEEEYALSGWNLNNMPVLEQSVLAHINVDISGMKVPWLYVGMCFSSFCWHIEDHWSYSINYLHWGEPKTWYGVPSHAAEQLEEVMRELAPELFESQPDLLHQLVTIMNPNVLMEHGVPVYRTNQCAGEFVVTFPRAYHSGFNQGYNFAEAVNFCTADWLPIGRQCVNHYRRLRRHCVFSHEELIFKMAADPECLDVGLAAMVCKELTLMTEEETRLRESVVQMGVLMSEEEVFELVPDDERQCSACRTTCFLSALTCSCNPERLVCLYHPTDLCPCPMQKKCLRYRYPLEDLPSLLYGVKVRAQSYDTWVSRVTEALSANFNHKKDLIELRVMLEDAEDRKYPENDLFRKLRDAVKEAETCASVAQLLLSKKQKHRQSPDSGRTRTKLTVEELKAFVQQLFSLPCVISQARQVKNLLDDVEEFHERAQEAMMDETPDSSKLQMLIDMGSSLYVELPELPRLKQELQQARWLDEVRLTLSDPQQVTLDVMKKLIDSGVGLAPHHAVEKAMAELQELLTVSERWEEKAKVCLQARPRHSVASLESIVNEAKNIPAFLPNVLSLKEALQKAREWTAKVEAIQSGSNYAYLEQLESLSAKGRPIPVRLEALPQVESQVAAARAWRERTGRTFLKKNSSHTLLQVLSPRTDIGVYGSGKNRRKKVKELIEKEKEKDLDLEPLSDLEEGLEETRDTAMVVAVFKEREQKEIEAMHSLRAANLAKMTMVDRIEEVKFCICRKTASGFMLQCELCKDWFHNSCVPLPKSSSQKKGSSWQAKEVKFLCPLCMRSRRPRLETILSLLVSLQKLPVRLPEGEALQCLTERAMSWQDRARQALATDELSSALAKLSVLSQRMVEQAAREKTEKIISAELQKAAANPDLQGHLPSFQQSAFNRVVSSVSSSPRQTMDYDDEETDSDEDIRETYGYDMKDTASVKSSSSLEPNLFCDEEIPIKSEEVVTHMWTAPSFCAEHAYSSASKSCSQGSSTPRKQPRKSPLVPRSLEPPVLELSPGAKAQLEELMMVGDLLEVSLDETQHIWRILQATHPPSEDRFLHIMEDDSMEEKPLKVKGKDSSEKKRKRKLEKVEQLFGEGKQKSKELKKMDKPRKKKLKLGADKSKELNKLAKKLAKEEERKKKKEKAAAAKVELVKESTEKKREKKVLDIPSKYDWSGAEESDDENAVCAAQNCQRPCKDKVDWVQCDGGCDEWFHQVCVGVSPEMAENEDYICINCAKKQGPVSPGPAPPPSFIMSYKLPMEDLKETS
T1 sequence (O15054 1043-1682 isoform O15054-1): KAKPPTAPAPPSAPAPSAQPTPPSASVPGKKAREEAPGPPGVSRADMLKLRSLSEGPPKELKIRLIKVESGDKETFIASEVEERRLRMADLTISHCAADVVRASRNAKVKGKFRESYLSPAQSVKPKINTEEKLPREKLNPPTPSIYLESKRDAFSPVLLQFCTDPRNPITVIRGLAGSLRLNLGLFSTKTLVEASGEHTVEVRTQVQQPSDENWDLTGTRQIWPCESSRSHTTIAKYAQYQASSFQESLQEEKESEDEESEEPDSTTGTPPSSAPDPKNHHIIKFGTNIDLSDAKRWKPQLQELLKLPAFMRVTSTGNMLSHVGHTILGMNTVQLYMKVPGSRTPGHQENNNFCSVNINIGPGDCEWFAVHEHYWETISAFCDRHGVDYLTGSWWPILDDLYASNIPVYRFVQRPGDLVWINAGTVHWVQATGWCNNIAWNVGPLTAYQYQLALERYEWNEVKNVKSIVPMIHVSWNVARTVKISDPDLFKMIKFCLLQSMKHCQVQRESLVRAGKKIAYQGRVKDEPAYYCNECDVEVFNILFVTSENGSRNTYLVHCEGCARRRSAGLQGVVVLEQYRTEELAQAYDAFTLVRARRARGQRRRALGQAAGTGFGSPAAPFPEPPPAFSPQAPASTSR

On to `C=CCOc1c(CNn2cnnc2S)cccc1OC` [YUKA1, 4-([2-(allyloxy)-3-methoxybenzyl]amino)-4H-1,2,4-triazole-3-thiol], for which the pIC50 in assay [1] is under 4.30; against full-length FLAG-KDM5A (AlphaScreen, 1 hour reaction, 0.05–50 μM compound) it was 5.58. The “cell growth, compound alone” value is “not changed” in the assay with BT474 cells (BT474, 35 days) and “not significantly affected” with PC9 cells (PC9, 7 days). In addition, the “emergence of colonies under trastuzumab” value with BT474 cells (BT474, plus 5 μg/ml trastuzumab, 42 days) was “significantly less”. Besides, in the assay with PC9 cells (PC9, plus 2 μM gefitinib, 35 days), the “colony formation during long-term gefitinib treatment” value is reported as “fewer YUKA1-treated cells formed colonies”. For the same compound, the “mode of inhibition with respect to Fe(II)” value at full-length FLAG-KDM5A is given as “uncompetitive with respect to Fe(II)”. The “change of IC50 over a 16-fold range of α-KG concentrations” value at full-length FLAG-KDM5A (150 nM H3K4me3 peptide, 50 μM Fe(II)) is on record as “did not change significantly”. Further, the inhibition at 2 µM against full-length FLAG-KDM5A (50 μM Fe(II)) is about 70%; against full-length FLAG-KDM5A (low Fe(II)), about 25%. Also, the “enzyme inhibition at low Fe(II)” value at full-length FLAG-KDM5A (5 μM Fe(II)) was “too weak to generate robust IC50 curves”. The “effect of catalase on inhibitory potency against KDM5A” value on full-length FLAG-KDM5A (0.01 mg/ml catalase) is listed as “did not affect”. In addition, the proliferation entry in the assay on MCF7 cells is “not affected”. The cell proliferation result in the assay on ZR-75-1 cells is on record as “decreased cell proliferation”; in the assay on MCF10A cells it was “did not hinder cell proliferation”. Further, in the assay on HeLa cells, the “proliferation relative to DMSO-treated cells” value is “less than half of DMSO-treated cells”.

These data come from PMC5129982, “Screen-identified selective inhibitor of lysine demethylase 5A blocks cancer cell growth and drug resistance” (Oncotarget, 2016).
